Test results taken from US20250154686A1, “COMPOUND LIBRARY” (CHUGAI SEIYAKU KABUSHIKI KAISHA, priority 2021, published 2025).

Molecular target: T1, Bcl-2 protein (Recombinant Human Bcl-2 Protein) (Homo sapiens, UniProt P10415)
T1 construct: purchased Novus Biologicals NBP2-34889
Assay: AS-MS evaluation of binding of the Example 4 mixture library (1200 compounds/well) to Bcl-2, ASMS ratio (%)
Details: mixture library, value belongs to the MS peak assigned to the compound; for ASMS ratio (%) n = 1: replicate n = 1; for ASMS ratio (%) n = 2: replicate n = 2
Procedure: DMSO solutions (prepared into approximately 0.58 mM based on calculation from the average molecular weight of each mixture) of 12 types of mixtures that could each contain 100 compounds, i.e., mixAI-B4J-01, mixAI-B1M-01, mixAI-B1K-01, mixAI-BIO-01, mixAI-B1A-01, mixAI-B3A-01, mixAI-B21-01, mixAI-B2L-01, mixAI-B2N-01, mixAI-B2A-01, mixAI-B2Q-01, and mixAI-B2R-01, shown in Table AI-03-B4J-01, Table AI-03-B1M-01, Table AI-03-B1K-01, Table AI-03-B10-01, Table AI-03-B1A-01, Table AI-03-B3A-01, Table AI-03-B21-01, Table AI-03-B2L-01, Table AI-03-B2N-01, Table AI-03-B2A-01, Table AI-03-B2Q-01, and Table AI-03-B2R-01 described in Example 4, were respectively dispensed to a total of 12 wells of MICROPLATE, 96-well, PP, V-BOTTOM (Greiner Bio-One International GmbH, 651201). 70 nL each from the 12 wells was collected into any one well using LABCYTE ECHO® 555 acoustic dispensing system (Beckman Coulter, Inc.) to prepare a sample solution in a mixed state of 1200 compounds (the presence of 1152 compounds was already identified when the mixtures were prepared in Example 4). Further, Bcl-2 protein (Novus Biologicals, NBP2-34889, Recombinant Human Bcl-2 Protein, Lot E60145051) (19.2 μL) prepared at 20.9 μM in advance using a Tris-HCl buffer (25 mM Tris-HCl, pH 7.4, 150 mM NaCl, 0.025% Tween-20, and 1 mM DTT) was added to the well containing the dispensed 1200 compounds (the presence of 1152 compounds was already identified when the mixtures were prepared in Example 4) (final compound concentration: 20 nM, final Bcl-2 concentration: 20 μM), and the plate was incubated at 23° C. for 1 hour in the dark. Subsequently, 200 μL of an assay buffer (25 mM Tris-HCl, pH 7.4, 150 mM NaCl, 0.025% Tween-20, and 1 mM DTT) was centrifuged three times at 2000×G at 4° C. for 2 minutes using 96-well MacroSpin column, P-2 Material (Harvard Bioscience, Inc., 74-5655) that had been allowed to swell to condition the 96-well MacroSpin column. Subsequently, 20 μL of the sample thus incubated was added to the 96-well MacroSpin column, P-2 Material after the completion of conditioning, and SEC treatment was performed by centrifugation at 2000×G for 2 minutes. 32 μL of a 1:1 mixed solution of acetonitrile and methanol (LC/MS grade, FUJIFILM Wako Pure Chemical Corp.) was added to a flow-through liquid from SEC, and the mixture was centrifuged at 1800×G at 4° C. for 5 minutes. The supernatant was used as analysis sample ASMS (A). By a similar operation, a sample prepared at 1200 compounds/well and supplemented with only a Tris-HCl buffer containing no Bcl-2 protein was incubated under the same conditions as above, and the same organic solvent as above was added thereto without 96-well MacroSpin column treatment. A supernatant obtained by a centrifugation operation was used as STD (B). Next, by a similar operation, a sample prepared at 1200 compounds/well and supplemented with only a Tris-HCl buffer containing no Bcl-2 protein was incubated under the same conditions as above and treated with 96-well MacroSpin column in the same manner as above, and the same organic solvent as above was added thereto. A supernatant obtained by a centrifugation operation was used as BK (C). These samples were measured by reverse-phase LC/MS.
Then, the samples A, B and C were analyzed for the 1200 compounds using TraceFinder 5.1 (Thermo Fisher Scientific Inc.) and CHANCE Software (in-house), and an ASMS ratio (%) was calculated according to the following expression.
Although m/z of the MS peaks was confirmed down to four decimal places, 0 at the decimal level may be omitted in the description in Table AJ-01. For example, “587.0000” is also referred to as “587”, “587.1000” is also referred to as “587.1”, “587.1200” is also referred to as “587.12”, and “587.1230” is also referred to as “587.123”.

T1 sequence (P10415 whole entry): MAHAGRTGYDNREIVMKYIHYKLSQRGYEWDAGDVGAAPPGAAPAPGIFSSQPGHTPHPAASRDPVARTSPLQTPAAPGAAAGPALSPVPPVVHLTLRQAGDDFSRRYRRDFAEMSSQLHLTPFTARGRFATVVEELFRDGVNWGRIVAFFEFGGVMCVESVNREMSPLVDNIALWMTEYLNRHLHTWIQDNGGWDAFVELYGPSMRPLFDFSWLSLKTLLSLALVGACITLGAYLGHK

SMILES: CCOc1cccc(-c2ccc(CN3CCN(c4ccc(C(=O)NS(C)(=O)=O)cc4)CC3)c(CC)c2)c1 [Compound B2I049-01, 4-[4-[[4-(3-Ethoxyphenyl)-2-ethylphenyl]methyl]piperazin-1-yl]-N-methylsulfonylbenzamide]
- ASMS ratio (%) n = 1: 0.0%
- ASMS ratio (%) n = 2: 0.0%

SMILES: CCOc1cncc(-c2ccc(CN3CCN(c4ccc(C(=O)NS(C)(=O)=O)cc4)CC3)c(CC)c2)c1 [Compound B2I050-01, 4-[4-[[4-(5-Ethoxypyridin-3-yl)-2-ethylphenyl]methyl]piperazin-1-yl]-N-methylsulfonylbenzamide]
- ASMS ratio (%) n = 1: 0.0%
- ASMS ratio (%) n = 2: −1.5%

SMILES: CCOc1cccc(-c2ccc(CN3CCN(c4ccc(C(=O)NS(C)(=O)=O)cc4)CC3)cc2F)c1 [Compound B2I051-01, 4-[4-[[4-(3-Ethoxyphenyl)-3-fluorophenyl]methyl]piperazin-1-yl]-N-methylsulfonylbenzamide]
- ASMS ratio (%) n = 1: 0.0%
- ASMS ratio (%) n = 2: 0.0%

SMILES: CCOc1cncc(-c2ccc(CN3CCN(c4ccc(C(=O)NS(C)(=O)=O)cc4)CC3)cc2F)c1 [Compound B2I052-01, 4-[4-[[4-(5-Ethoxypyridin-3-yl)-3-fluorophenyl]methyl]piperazin-1-yl]-N-methylsulfonylbenzamide]
- ASMS ratio (%) n = 1: 0.0%
- ASMS ratio (%) n = 2: 0.0%

SMILES: CCOc1cccc(-c2ccc(CN3CCN(c4ccc(C(=O)NS(C)(=O)=O)cc4)CC3)c(OC)c2)c1 [Compound B2I053-01, 4-[4-[[4-(3-Ethoxyphenyl)-2-methoxyphenyl]methyl]piperazin-1-yl]-N-methylsulfonylbenzamide]
- ASMS ratio (%) n = 1: 0.0%
- ASMS ratio (%) n = 2: 0.0%

SMILES: CCOc1cncc(-c2ccc(CN3CCN(c4ccc(C(=O)NS(C)(=O)=O)cc4)CC3)c(OC)c2)c1 [Compound B2I054-01, 4-[4-[[4-(5-Ethoxypyridin-3-yl)-2-methoxyphenyl]methyl]piperazin-1-yl]-N-methylsulfonylbenzamide]
- ASMS ratio (%) n = 1: 0.0%
- ASMS ratio (%) n = 2: 0.0%

SMILES: CCOc1cccc(-c2cc(CN3CCN(c4ccc(C(=O)NS(C)(=O)=O)cc4)CC3)cc(OCC)c2)c1 [Compound B2I055-01, 4-[4-[[3-Ethoxy-5-(3-ethoxyphenyl)phenyl]methyl]piperazin-1-yl]-N-methylsulfonylbenzamide]
- ASMS ratio (%) n = 1: 0.0%
- ASMS ratio (%) n = 2: 0.0%

SMILES: CCOc1cncc(-c2cc(CN3CCN(c4ccc(C(=O)NS(C)(=O)=O)cc4)CC3)cc(OCC)c2)c1 [Compound B2I056-01, 4-[4-[[3-Ethoxy-5-(5-ethoxypyridin-3-yl)phenyl]methyl]piperazin-1-yl]-N-methylsulfonylbenzamide]
- ASMS ratio (%) n = 1: 0.0%
- ASMS ratio (%) n = 2: 0.0%

SMILES: CCOc1cccc(-c2cc(CN3CCN(c4ccc(C(=O)NS(C)(=O)=O)cc4)CC3)cc(OC(C)C)c2)c1 [Compound B2I057-01, 4-[4-[[3-(3-Ethoxyphenyl)-5-propan-2-yloxyphenyl]methyl]piperazin-1-yl]-N-methylsulfonylbenzamide]
- ASMS ratio (%) n = 1: 0.0%
- ASMS ratio (%) n = 2: 0.0%

SMILES: CCOc1cncc(-c2cc(CN3CCN(c4ccc(C(=O)NS(C)(=O)=O)cc4)CC3)cc(OC(C)C)c2)c1 [Compound B2I058-01, 4-[4-[[3-(5-Ethoxypyridin-3-yl)-5-propan-2-yloxyphenyl]methyl]piperazin-1-yl]-N-methylsulfonylbenzamide]
- ASMS ratio (%) n = 1: 0.0%
- ASMS ratio (%) n = 2: 0.0%

SMILES: CCOc1cccc(-c2cc(OC)c(CN3CCN(c4ccc(C(=O)NS(C)(=O)=O)cc4)CC3)c(OC)c2)c1 [Compound B2I059-01, 4-[4-[[4-(3-Ethoxyphenyl)-2,6-dimethoxyphenyl]methyl]piperazin-1-yl]-N-methylsulfonylbenzamide]
- ASMS ratio (%) n = 1: 0.0%
- ASMS ratio (%) n = 2: 0.0%

SMILES: CCOc1cncc(-c2cc(OC)c(CN3CCN(c4ccc(C(=O)NS(C)(=O)=O)cc4)CC3)c(OC)c2)c1 [Compound B2I060-01, 4-[4-[[4-(5-Ethoxypyridin-3-yl)-2,6-dimethoxyphenyl]methyl]piperazin-1-yl]-N-methylsulfonylbenzamide]
- ASMS ratio (%) n = 1: 0.0%
- ASMS ratio (%) n = 2: 0.0%

SMILES: CCOc1cccc(-c2cc(CN3CCN(c4ccc(C(=O)NS(C)(=O)=O)cc4)CC3)cc(C(F)(F)F)c2)c1 [Compound B2I061-01, 4-[4-[[3-(3-Ethoxyphenyl)-5-(trifluoromethyl)phenyl]methyl]piperazin-1-yl]-N-methylsulfonylbenzamide]
- ASMS ratio (%) n = 1: −0.8%
- ASMS ratio (%) n = 2: 0.5%

SMILES: CCOc1cncc(-c2cc(CN3CCN(c4ccc(C(=O)NS(C)(=O)=O)cc4)CC3)cc(C(F)(F)F)c2)c1 [Compound B2I062-01, 4-[4-[[3-(5-Ethoxypyridin-3-yl)-5-(trifluoromethyl)phenyl]methyl]piperazin-1-yl]-N-methylsulfonylbenzamide]
- ASMS ratio (%) n = 1: 0.0%
- ASMS ratio (%) n = 2: 0.0%

SMILES: CCOc1cccc(-c2cc(CN3CCN(c4ccc(C(=O)NS(C)(=O)=O)cc4)CC3)cc(OC(F)(F)F)c2)c1 [Compound B2I063-01, 4-[4-[[3-(3-Ethoxyphenyl)-5-(trifluoromethoxy)phenyl]methyl]piperazin-1-yl]-N-methylsulfonylbenzamide]
- ASMS ratio (%) n = 1: 0.9%
- ASMS ratio (%) n = 2: 0.0%

SMILES: CCOc1cncc(-c2cc(CN3CCN(c4ccc(C(=O)NS(C)(=O)=O)cc4)CC3)cc(OC(F)(F)F)c2)c1 [Compound B2I064-01, 4-[4-[[3-(5-Ethoxypyridin-3-yl)-5-(trifluoromethoxy)phenyl]methyl]piperazin-1-yl]-N-methylsulfonylbenzamide]
- ASMS ratio (%) n = 1: 0.0%
- ASMS ratio (%) n = 2: 0.0%

SMILES: CCOc1cccc(-c2ccc(CN3CCN(c4ccc(C(=O)NS(C)(=O)=O)cc4)CC3)c3ccccc23)c1 [Compound B2I065-01, 4-[4-[[4-(3-Ethoxyphenyl)naphthalen-1-yl]methyl]piperazin-1-yl]-N-methylsulfonylbenzamide]
- ASMS ratio (%) n = 1: 0.0%
- ASMS ratio (%) n = 2: 0.0%

SMILES: CCOc1cncc(-c2ccc(CN3CCN(c4ccc(C(=O)NS(C)(=O)=O)cc4)CC3)c3ccccc23)c1 [Compound B2I066-01, 4-[4-[[4-(5-Ethoxypyridin-3-yl)naphthalen-1-yl]methyl]piperazin-1-yl]-N-methylsulfonylbenzamide]
- ASMS ratio (%) n = 1: 0.0%
- ASMS ratio (%) n = 2: 0.0%

SMILES: CCOc1cccc(-c2csc(CN3CCN(c4ccc(C(=O)NS(C)(=O)=O)cc4)CC3)c2)c1 [Compound B2I067-01, 4-[4-[[4-(3-Ethoxyphenyl)thiophen-2-yl]methyl]piperazin-1-yl]-N-methylsulfonylbenzamide]
- ASMS ratio (%) n = 1: 0.0%
- ASMS ratio (%) n = 2: 0.0%

SMILES: CCOc1cncc(-c2csc(CN3CCN(c4ccc(C(=O)NS(C)(=O)=O)cc4)CC3)c2)c1 [Compound B2I068-01, 4-[4-[[4-(5-Ethoxypyridin-3-yl)thiophen-2-yl]methyl]piperazin-1-yl]-N-methylsulfonylbenzamide]
- ASMS ratio (%) n = 1: 0.0%
- ASMS ratio (%) n = 2: 0.0%
